From PubChem BioAssay (NCI)
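All cell lines were grown in 96-well plates and treated with compound for 48 hours. GI50 is the concentration that inhibits growth by half. TGI: concentration producing complete growth inhibition.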

Tests used:
Experiment in all cases: NCI-60 cell line screen, 48 h; in the data active = GI50 below about 0.43 µM; inactive = the rest
[1] = test system: MDA-MB-435
[2] = test system: SNB-19 CNS
[3] = test system: SF-295 CNS
[4] = test system: DU-145 prostate
[5] = test system: A498 renal
[6] = test system: BT-549 breast
[7] = test system: NCI/ADR-RES ovarian
[8] = test system: NCI-H460 lung
[9] = test system: M14 melanoma
[10] = test system: HS 578T breast
[11] = test system: SR leukemia
[12] = test system: HOP-92 NSCLC
[13] = test system: IGROV1 ovarian
[14] = test system: RPMI-8226 leukemia
[15] = test system: HCT-116 colon
[16] = test system: NCI-H23 lung
[17] = test system: SF-539 CNS
[18] = test system: MOLT-4 leukemia
[19] = test system: OVCAR-8 ovarian
[20] = test system: 786-0 renal
[21] = test system: SF-268 CNS
[22] = test system: MDA-MB-231 breast
[23] = test system: UACC-257 melanoma
[24] = test system: HOP-62 NSCLC
[25] = test system: COLO 205 colon
[26] = test system: HL-60(TB) leukemia
[27] = test system: KM12 colon
[28] = test system: SK-MEL-28 melanoma
[29] = test system: NCI-H226 lung
[30] = test system: NCI-H522 lung
[31] = test system: SK-MEL-2 melanoma
[32] = test system: T-47D breast
[33] = test system: CCRF-CEM leukemia
[34] = test system: TK-10 renal
[35] = test system: OVCAR-4 ovarian
[36] = test system: SN12C renal
[37] = test system: ACHN renal
[38] = test system: SW-620 colon
[39] = test system: HCC-2998 colon
[40] = test system: OVCAR-5 ovarian
[41] = test system: CAKI-1 renal
[42] = test system: A549 NSCLC
[43] = test system: EKVX NSCLC
[44] = test system: OVCAR-3 ovarian
[45] = test system: HCT-15 colon
[46] = test system: UO-31 renal
[47] = test system: HT29 colon
[48] = test system: LOX IMVI melanoma
[49] = test system: K-562 leukemia
[50] = test system: U251 CNS
[51] = test system: MCF7 breast
[52] = test system: PC-3 prostate
[53] = test system: SK-MEL-5 melanoma
[54] = test system: UACC-62 melanoma
[55] = test system: RXF 393 renal
[56] = test system: SK-OV-3 ovarian

C=CCC1(O)c2ccccc2C(=O)c2c(OCC(=O)OCC)ccc(OCC(=O)OCC)c21 (stereo not given)
> 100 µM: TGI [1] | TGI [2] | TGI [3] | TGI [4] | TGI [5] | TGI [6] | TGI [7] | TGI [8] | TGI [9] | TGI [10] | TGI [11] | TGI [12] | TGI [13] | TGI [14] | TGI [15] | TGI [16] | TGI [17] | TGI [18] | TGI [19] | TGI [20] | TGI [21] | TGI [22] | TGI [23] | TGI [24] | TGI [25] | TGI [26] | TGI [27] | TGI [28] | TGI [29] | TGI [30] | TGI [31] | TGI [32] | TGI [33] | TGI [34] | TGI [35] | TGI [36] | TGI [37] | TGI [38] | TGI [39] | TGI [40] | TGI [41] | TGI [42] | TGI [43] | TGI [44] | TGI [45] | TGI [46] | TGI [47] | TGI [48] | TGI [49] | TGI [50] | TGI [51] | TGI [52] | TGI [53] | TGI [54]
inactive: GI50 [1] > 100 µM | GI50 [2] > 100 µM | GI50 [3] > 100 µM | GI50 [4] > 100 µM | GI50 [5] > 100 µM | GI50 [6] > 100 µM | GI50 [7] > 100 µM | GI50 [8] 84.9 µM | GI50 [9] > 100 µM | GI50 [10] > 100 µM | GI50 [11] 82.6 µM | GI50 [12] 41.9 µM | GI50 [13] > 100 µM | GI50 [14] 89 µM | GI50 [15] > 100 µM | GI50 [16] > 100 µM | GI50 [17] > 100 µM | GI50 [18] 51 µM | GI50 [19] > 100 µM | GI50 [20] > 100 µM | GI50 [21] > 100 µM | GI50 [22] 25.6 µM | GI50 [23] > 100 µM | GI50 [24] > 100 µM | GI50 [25] > 100 µM | GI50 [26] 75.9 µM | GI50 [27] > 100 µM | GI50 [28] > 100 µM | GI50 [29] > 100 µM | GI50 [30] > 100 µM | GI50 [31] > 100 µM | GI50 [32] > 100 µM | GI50 [33] > 100 µM | GI50 [34] > 100 µM | GI50 [35] > 100 µM | GI50 [36] 87.6 µM | GI50 [37] > 100 µM | GI50 [38] > 100 µM | GI50 [39] 44.9 µM | GI50 [40] > 100 µM | GI50 [41] > 100 µM | GI50 [42] > 100 µM | GI50 [43] > 100 µM | GI50 [44] > 100 µM | GI50 [45] > 100 µM | GI50 [46] > 100 µM | GI50 [47] > 100 µM | GI50 [48] > 100 µM | GI50 [49] > 100 µM | GI50 [50] 81 µM | GI50 [51] > 100 µM | GI50 [52] > 100 µM | GI50 [53] > 100 µM | GI50 [54] 64.7 µM

COc1cc(/C=C2\CC3C4CC=C5CC(OC(C)=O)CC[C@]5(C)C4CC[C@]3(C)C2=O)ccc1OCCN1CCCC1 (stereo not given in full)
> 91 µM: TGI [32]
9.82 µM: TGI [17]
15 µM: TGI [27]
> 66.9 µM: TGI [2]
active: GI50 [33] 0.268 µM | GI50 [48] 0.248 µM
30.9 µM: TGI [29]
inactive: GI50 [1] 3.38 µM | GI50 [2] 23.6 µM | GI50 [3] 4.8 µM | GI50 [4] 13.6 µM | GI50 [5] 23.7 µM | GI50 [6] 14.7 µM | GI50 [7] 12 µM | GI50 [8] 2.54 µM | GI50 [9] 1.42 µM | GI50 [10] 20 µM | GI50 [11] 0.708 µM | GI50 [12] 13.5 µM | GI50 [13] 5.81 µM | GI50 [15] 1.52 µM | GI50 [55] 3.01 µM | GI50 [16] 14.2 µM | GI50 [17] 3.63 µM | GI50 [18] 1.87 µM | GI50 [19] 13.8 µM | GI50 [20] 4.51 µM | GI50 [21] 8.53 µM | GI50 [22] 3.39 µM | GI50 [23] 2.09 µM | GI50 [24] 9.52 µM | GI50 [25] 4.83 µM | GI50 [26] 2.78 µM | GI50 [27] 3.89 µM | GI50 [28] 2.54 µM | GI50 [29] 14.1 µM | GI50 [30] 10.5 µM | GI50 [31] 6.99 µM | GI50 [32] 5.4 µM | GI50 [34] 7.25 µM | GI50 [35] 2.38 µM | GI50 [36] 13.7 µM | GI50 [37] 5.52 µM | GI50 [38] 4.89 µM | GI50 [39] 12.5 µM | GI50 [40] 13.4 µM | GI50 [41] 13.1 µM | GI50 [42] 7.98 µM | GI50 [43] 18 µM | GI50 [44] 3 µM | GI50 [45] 1.91 µM | GI50 [46] 8.67 µM | GI50 [47] 0.646 µM | GI50 [49] 1.08 µM | GI50 [50] 4.2 µM | GI50 [51] 2.69 µM | GI50 [56] 23.7 µM | GI50 [52] 8.47 µM | GI50 [53] 1.38 µM | GI50 [54] 1.93 µM
11.2 µM: TGI [22]
17.9 µM: TGI [37]
27 µM: TGI [41]
2.86 µM: TGI [53]
> 44.7 µM: TGI [13]
14.7 µM: TGI [50]
23.5 µM: TGI [46]
23.7 µM: TGI [31]
26.7 µM: TGI [21]
26.6 µM: TGI [4] | TGI [30] | TGI [36]
13.1 µM: TGI [1]
3.85 µM: TGI [54]
> 63.8 µM: TGI [25]
10.5 µM: TGI [44]
8.5 µM: TGI [18]
2.87 µM: TGI [11]
27.7 µM: TGI [16]
43.5 µM: TGI [5]
22.9 µM: TGI [38]
11.6 µM: TGI [55]
23 µM: TGI [24]
42.7 µM: TGI [10]
6.89 µM: TGI [26]
14 µM: TGI [20]
> 19.6 µM: TGI [35]
> 48.6 µM: TGI [42]
2.9 µM: TGI [9]
4.2 µM: TGI [23]
> 22.4 µM: TGI [51]
11.8 µM: TGI [3]
26.4 µM: TGI [40]
3.14 µM: TGI [15]
5.3 µM: TGI [45]
7.41 µM: TGI [49]
1.78 µM: TGI [33]
28.6 µM: TGI [12]
47 µM: TGI [19]
19.6 µM: TGI [34]
38.3 µM: TGI [6]
24.9 µM: TGI [7]
23.2 µM: TGI [52]
25 µM: TGI [39]
2.55 µM: TGI [48]
> 63.9 µM: TGI [56]
35.4 µM: TGI [43]
